# Measurements as given in patent US20080113868A1, “Colorant compositions and their use as pH sensitive color indicators” (priority 2006, published 2008).
# Legend:
# Assay type in all cases: physicochemical
# [1] = Cellulose powder staining test; settings: on cellulose powder after stirring with deionized water for one minute
# Protocol: Colorant 8 was diluted in water to an absorbtivity value of 33.5 A/g/L; then 0.73 parts was dissolved in 5 parts of methanol to give a stock solution A. One part of this solution was mixed with 10 parts of cellulose microcrystalline powder available from Aldrich. The colored powder was dried in a beaker in a 100° C. oven over 20 minutes with occasional stirring. The dry powder was cooled and stirred with 50 parts deionized water for one minute. The slurry was filtered and the filtrate was collected. The percent retention of color on the cellulose powder was calculated from the ratio of the absorbance of one part stock solution A diluted with 50 parts water and the absorbance of the filtrate solution.
# The same procedure was used with a stock solution of 0.73 parts dodecenyl succinic ester acid colorant, Inventive Colorant 9, dissolved in 5 ml of methanol. The percent retention of color was determined in the same manner.
# [2] = Lightfastness test (AATCC Test Method 16-1993 Option E), effect of ultraviolet light
# Protocol: In order to determine the effect of ultraviolet light on the de-coloration rate over time of the colorant compositions of the present invention, the colorants were subjected to a lightfastness test. The test was performed according to AATCC Test Method 16-1993 Option E. Comparative Colorants 1-4 were also tested.
# The results are provided as DE CMC values and represent the color difference from the standard or control, which was white paper. […] This value for each of the time intervals is then divided by the initial DE CMC value and multiplied by 100.
# [3] = Test for pH effect on de-coloration: absorbance in aqueous pH buffer solutions
# Protocol: Several 1% solutions of colorant were prepared and added to standard aqueous pH buffer solutions available from VWR and Aldrich to give absorbance of less than one. The colorant solution was tested for absorbance using a DU 7 Spectrophotometer.
# In general, the pKa value represents the pH value when approximately half of the colorant is converted to its colorless form. […] “Comparative” is indicated as “Comp.”
# [4] = ultraviolet light exposure time 0 hours
# [5] = ultraviolet light exposure time 0 hours (initial)
# [6] = ultraviolet light exposure time 2 hours
# [7] = ultraviolet light exposure time 5 hours
# [8] = ultraviolet light exposure time 10 hours
# [9] = ultraviolet light exposure time 20 hours
# [10] = pH value when approximately half of the colorant is converted to its colorless form
Compound,Percent Color Retention [1] [%],"Percent Color Fade [2, 4] [%]","DE CMC value (color difference from white paper) [2, 5]","DE CMC value (color difference from white paper) [2, 6]","Percent Color Fade [2, 6] [%]","DE CMC value (color difference from white paper) [2, 7]","Percent Color Fade [2, 7] [%]","DE CMC value (color difference from white paper) [2, 8]","Percent Color Fade [2, 8] [%]","DE CMC value (color difference from white paper) [2, 9]","Percent Color Fade [2, 9] [%]",Absorbance ([3]; aqueous buffer pH 2),Absorbance ([3]; aqueous buffer pH 4),Absorbance ([3]; aqueous buffer pH 6),Absorbance ([3]; aqueous buffer pH 7),Absorbance ([3]; aqueous buffer pH 8),Absorbance ([3]; aqueous buffer pH 9),Absorbance ([3]; aqueous buffer pH 10),"pKa Value [3, 10]","pKa [3, 10]"
"Phenyl-methyliumylidene-di(4,1-phenyleneamino)N,N-polyethyleneoxy(5), Chloride [Colorant 8]",56,0,51.09,39.83,22.04,38.01,25.60,12.29,75.94,8.95,82.48,,,,,,,,,
"3-Methoxy-4-Polyethyleneoxide(6)phenyl-methyliumylidene-di(4,1-phenyleneamino)N,N-polyethyleneoxy(10), Chloride [Colorant 5]",,0,38.47,32.17,16.38,31.67,17.68,29.83,22.46,7.15,81.42,0.8266,0.8269,0.7735,0.5674,0.1928,0.0527,0.0312,7.3,
"CN(C)c1ccc(C(=C2C=CC(=[N+](C)C)C=C2)c2ccccc2)cc1 [Comp. Colorant 4, Basic Green 4, reference compound]",,0,44.71,14.37,67.86,13.05,70.81,9.65,78.42,5.67,87.32,0.319,0.3843,0.4546,0.2678,0.0538,0.0361,0.0111,,7
"CCN(Cc1cccc(S(=O)(=O)[O-])c1)c1ccc(C(=C2C=CC(=[N+](CC)Cc3cccc(S(=O)(=O)[O-])c3)C=C2)c2ccccc2S(=O)(=O)[O-])cc1.[Na+].[Na+] [Comp. Colorant 3, Acid Blue 9, reference compound]",,0,58.19,52.89,9.11,49.83,14.37,46.51,20.07,40.21,30.90,0.764,0.7699,0.7253,,0.7829,,0.804,>10,
"Phenyl-methyliumylidene-di(4,1-phenyleneamino)N,N-polyethyleneoxy(10), Chloride [Colorant 1]",,,,,,,,,,,,0.95,0.95,0.82,0.35,0.05,0.005,0.005,6.6,
"Phenyl-methyliumylidene-di(4,1-phenyleneamino)N,N-polyethyleneoxy(5)-tetrakisDodecenylsuccinate acid, inner salt [Colorant 9]",92.6,,,,,,,,,,,,,,,,,,,
"3,4-methylenedioxyphenyl-methyliumylidene-di(4,1-phenyleneamino)N,N-polyethyleneoxy(10), Chloride [Colorant 3]",,0,75.15,36.95,50.83,34.25,54.42,33.39,55.57,29.45,60.81,0.9589,0.955,0.9609,0.7309,0.2375,0.0424,0.0199,7.5,
"4-Methylphenyl-methyliumylidene-di(4,1-phenyleneamino)N,N-polyethyleneoxy(10), Chloride [Colorant 4]",,0,50.95,41.31,18.92,38.99,23.47,37.19,27.01,30.97,39.22,0.8881,0.8878,0.8304,0.569,0.154,0.0244,0.0079,7.3,
